# Tests used:
# Type in all cases: biochemical
# CYP1A2 = biological target: T1, CYP1A2 (Homo sapiens, UniProt P05177); test: Cocktail assay for CYPs in human liver microsomes: CYP1A2 (phenacetin O-deethylation); conditions: human liver microsomes 0.1 mg/mL, 10 μM phenacetin, 10 min at 37° C., 6 concentrations up to 10 μM; read-out: IC50 (nM) CYP1A2
# T1 construct: 0.1 mg/mL protein human liver microsomes (BD Gentest); tissue BD Gentest; host or cells: human liver microsomes
# T1 sequence (P05177 1-516): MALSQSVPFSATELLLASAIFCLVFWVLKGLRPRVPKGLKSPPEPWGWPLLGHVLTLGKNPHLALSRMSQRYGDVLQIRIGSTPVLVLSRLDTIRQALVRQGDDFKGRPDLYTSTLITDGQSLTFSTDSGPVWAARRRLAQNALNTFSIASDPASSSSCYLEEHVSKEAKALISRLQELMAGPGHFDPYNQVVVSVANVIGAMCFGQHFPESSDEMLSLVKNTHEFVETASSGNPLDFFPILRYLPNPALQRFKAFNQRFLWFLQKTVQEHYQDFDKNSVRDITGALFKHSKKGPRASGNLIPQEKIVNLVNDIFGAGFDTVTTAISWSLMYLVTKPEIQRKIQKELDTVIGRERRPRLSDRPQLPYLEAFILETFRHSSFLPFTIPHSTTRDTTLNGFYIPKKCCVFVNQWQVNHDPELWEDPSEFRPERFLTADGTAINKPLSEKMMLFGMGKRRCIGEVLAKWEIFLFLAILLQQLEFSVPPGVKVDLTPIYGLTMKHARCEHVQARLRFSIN
# CYP2D6 = biological target: T2, CYP2D6 (Homo sapiens, UniProt P10635); test: Cocktail assay for CYPs in human liver microsomes: CYP2D6 (dextromethorphan O-demethylation); conditions: human liver microsomes 0.1 mg/mL, 5 μM dextromethorphan, 10 min at 37° C., 6 concentrations up to 10 μM; read-out: IC50 (nM) CYP2D6
# T2 construct: 0.1 mg/mL protein human liver microsomes (BD Gentest); tissue BD Gentest; host or cells: human liver microsomes
# CYP3A4 = biological target: T3, CYP3A4 (Homo sapiens, UniProt P08684); test: Cocktail assay for CYPs in human liver microsomes: CYP3A4 (midazolam 1′-hydroxylation); conditions: human liver microsomes 0.1 mg/mL, 2 μM midazolam, 10 min at 37° C., 6 concentrations up to 10 μM; read-out: IC50 (nM) CYP3A4
# T3 construct: 0.1 mg/mL protein human liver microsomes (BD Gentest); tissue BD Gentest; host or cells: human liver microsomes
# CYP2C19 = biological target: T4, CYP2C19 (Homo sapiens, UniProt P33261); test: Cocktail assay for CYPs in human liver microsomes: CYP2C19 (mephenytoin 4′-hydroxylation); conditions: human liver microsomes 0.1 mg/mL, 30 μM mephenytoin, 10 min at 37° C., 6 concentrations up to 10 μM; read-out: IC50 (nM) CYP2C19
# T4 construct: 0.1 mg/mL protein human liver microsomes (BD Gentest); tissue BD Gentest; host or cells: human liver microsomes
# CYP2C9 = biological target: T5, CYP2C9 (Homo sapiens, UniProt P11712); test: Cocktail assay for CYPs in human liver microsomes: CYP2C9 (diclofenac 4′-hydroxylation); conditions: human liver microsomes 0.1 mg/mL, 5 μM diclofenac, 10 min at 37° C., 6 concentrations up to 10 μM; read-out: IC50 (nM) CYP2C9
# T5 construct: 0.1 mg/mL protein human liver microsomes (BD Gentest); tissue BD Gentest; host or cells: human liver microsomes
# T5 sequence (P11712 whole entry): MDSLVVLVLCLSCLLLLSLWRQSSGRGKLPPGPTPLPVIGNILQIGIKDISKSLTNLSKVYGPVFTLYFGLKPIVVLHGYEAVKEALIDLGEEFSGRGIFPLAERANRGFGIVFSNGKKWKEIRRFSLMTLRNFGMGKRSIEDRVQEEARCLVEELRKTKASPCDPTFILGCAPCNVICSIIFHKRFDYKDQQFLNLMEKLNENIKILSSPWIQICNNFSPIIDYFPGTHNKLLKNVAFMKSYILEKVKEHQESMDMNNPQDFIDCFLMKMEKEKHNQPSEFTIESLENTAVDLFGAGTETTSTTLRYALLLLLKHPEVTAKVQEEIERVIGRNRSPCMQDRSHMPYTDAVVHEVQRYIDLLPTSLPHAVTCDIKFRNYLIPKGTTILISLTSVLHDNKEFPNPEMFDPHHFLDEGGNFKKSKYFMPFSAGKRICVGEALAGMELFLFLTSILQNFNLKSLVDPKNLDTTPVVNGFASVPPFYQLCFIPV
# T4 sequence (P33261 whole entry): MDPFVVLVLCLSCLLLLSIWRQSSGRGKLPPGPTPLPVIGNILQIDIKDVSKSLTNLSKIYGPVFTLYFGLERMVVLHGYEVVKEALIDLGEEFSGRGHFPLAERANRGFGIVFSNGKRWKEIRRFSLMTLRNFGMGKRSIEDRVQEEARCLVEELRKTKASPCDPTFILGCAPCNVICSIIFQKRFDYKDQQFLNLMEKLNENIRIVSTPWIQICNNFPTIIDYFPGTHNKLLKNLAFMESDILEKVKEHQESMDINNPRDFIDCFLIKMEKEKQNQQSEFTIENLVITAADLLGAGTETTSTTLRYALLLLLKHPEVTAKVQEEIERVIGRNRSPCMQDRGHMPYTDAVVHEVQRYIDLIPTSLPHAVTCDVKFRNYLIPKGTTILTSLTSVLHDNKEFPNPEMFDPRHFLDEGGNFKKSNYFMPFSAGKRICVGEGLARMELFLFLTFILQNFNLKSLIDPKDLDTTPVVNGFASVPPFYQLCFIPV
# T2 sequence (P10635 whole entry): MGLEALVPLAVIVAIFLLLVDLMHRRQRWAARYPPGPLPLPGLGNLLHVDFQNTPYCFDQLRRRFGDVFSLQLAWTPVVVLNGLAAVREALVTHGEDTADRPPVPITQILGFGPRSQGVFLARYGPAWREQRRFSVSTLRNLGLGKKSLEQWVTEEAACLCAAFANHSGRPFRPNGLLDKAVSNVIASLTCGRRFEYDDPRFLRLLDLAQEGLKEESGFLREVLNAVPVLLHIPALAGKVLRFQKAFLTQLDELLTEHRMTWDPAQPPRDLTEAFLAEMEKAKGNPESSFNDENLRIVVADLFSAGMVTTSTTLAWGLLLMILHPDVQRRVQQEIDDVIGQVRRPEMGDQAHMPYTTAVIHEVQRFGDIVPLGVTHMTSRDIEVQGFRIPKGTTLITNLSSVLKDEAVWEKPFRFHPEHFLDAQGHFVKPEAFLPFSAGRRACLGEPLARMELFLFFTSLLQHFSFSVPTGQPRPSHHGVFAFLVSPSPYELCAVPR
# T3 sequence (P08684 whole entry): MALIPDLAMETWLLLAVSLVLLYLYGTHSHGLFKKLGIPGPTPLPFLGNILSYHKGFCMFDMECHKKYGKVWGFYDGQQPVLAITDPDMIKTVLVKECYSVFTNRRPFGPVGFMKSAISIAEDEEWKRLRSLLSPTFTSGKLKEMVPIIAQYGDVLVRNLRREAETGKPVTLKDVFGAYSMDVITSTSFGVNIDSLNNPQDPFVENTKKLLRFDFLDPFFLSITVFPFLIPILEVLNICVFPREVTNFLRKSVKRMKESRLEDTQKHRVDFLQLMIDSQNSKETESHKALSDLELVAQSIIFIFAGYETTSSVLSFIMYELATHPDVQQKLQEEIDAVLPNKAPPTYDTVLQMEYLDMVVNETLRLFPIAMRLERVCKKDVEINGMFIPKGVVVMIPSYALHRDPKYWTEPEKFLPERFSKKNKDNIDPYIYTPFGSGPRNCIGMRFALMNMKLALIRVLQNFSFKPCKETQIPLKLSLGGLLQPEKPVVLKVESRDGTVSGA
Structure (SMILES),IC50 (CYP1A2),IC50 (CYP2D6),IC50 (CYP3A4),IC50 (CYP2C19),IC50 (CYP2C9)
"CNc1ncc(CN2CCN(Cc3cncn3[C@H](C)c3ccc(F)cc3)CC2=O)s1 [Compound 67, (R)-4-((1-(1-(4-fluorophenyl)ethyl)-1H-imidazol-5-yl)methyl)-1-((2-(methylamino)thiazol-5-yl)methyl) piperazin-2-one]",> 10000 nM,> 10000 nM,75 nM,> 10000 nM,> 10000 nM
"C[C@H](c1ccc(F)cc1)n1cncc1CN1CCN(Cc2cnc(N3CCOCC3)s2)C(=O)C1 [Compound 68, (R)-4-((1-(1-(4-fluorophenyl)ethyl)-1H-imidazol-5-yl)methyl)-1-((2-morpholinothiazol-5-yl)methyl)piperazin-2-one]",> 10000 nM,> 10000 nM,80 nM,> 10000 nM,> 10000 nM
"C[C@H](c1ccc(F)cc1)n1cncc1CN1CCN(Cc2cnc(N3CCN(C)CC3)s2)C(=O)C1 [Compound 69, (R)-4-((1-(1-(4-fluorophenyl)ethyl)-1H-imidazol-5-yl)methyl)-1-((2-(4-methylpiperazin-1-yl)thiazol-5-yl)methyl) piperazin-2-one]",> 10000 nM,> 10000 nM,56 nM,> 10000 nM,> 10000 nM
"CCOC(=O)CN1CCN(Cc2cncn2C(C)c2ccccc2-c2ccc(F)cc2)CC1 (stereo not drawn) [Compound 70, ethyl 2-(4-((1-(1-(4′-fluoro-[1,1′-biphenyl]-2-yl)ethyl)-1H-imidazol-5-yl)methyl)piperazin-1-yl)acetate]",> 10000 nM,7680 nM,15 nM,5950 nM,> 10000 nM
"CC(c1ccccc1-c1ccc(F)cc1)n1cncc1CN1CCN(CCO)CC1 (stereo not drawn) [Compound 71, 2-(4-((1-(1-(4′-fluoro-[1,1′-biphenyl]-2-yl)ethyl)-1H-imidazol-5-yl)methyl)piperazin-1-yl) ethanol]",> 10000 nM,> 10000 nM,37 nM,> 10000 nM,> 10000 nM
"COCCN1CCN(Cc2cncn2C(C)c2ccccc2-c2ccc(F)cc2)CC1 (stereo not drawn) [Compound 72, 1-((1-(1-(4′-fluoro-[1,1′-biphenyl]-2-yl)ethyl)-1H-imidazol-5-yl)methyl)-4-(2-methoxyethyl) piperazine]",> 10000 nM,1170 nM,14 nM,> 10000 nM,> 10000 nM

# Continued, values first:
IC50 (CYP1A2),IC50 (CYP2D6),IC50 (CYP3A4),IC50 (CYP2C19),IC50 (CYP2C9),Structure (SMILES)
3590 nM,3110 nM,43 nM,4520 nM,2860 nM,"COc1ccc(-c2nc(CN3CCN(Cc4cncn4[C@H](C)c4ccc(F)cc4)CC3=O)no2)cc1 [Compound 64, (R)-4-((1-(1-(4-fluorophenyl)ethyl)-1H-imidazol-5-yl)methyl)-1-((5-(4-methoxyphenyl)-1,2,4-oxadiazol-3-yl)methyl) piperazin-2-one]"
> 10000 nM,3360 nM,10 nM,1340 nM,8780 nM,"COc1ccc(CNc2ncc(CN3CCN(Cc4cncn4[C@H](C)c4ccc(F)cc4)CC3=O)s2)c(OC)c1 [Compound 65, (R)-1-((2-((2,4-dimethoxybenzyl)amino)thiazol-5-yl)methyl)-4-((1-(1-(4-fluorophenyl)ethyl)-1H-imidazol-5-yl)methyl)piperazin-2-one]"
> 10000 nM,> 10000 nM,43 nM,> 10000 nM,> 10000 nM,"C[C@H](c1ccc(F)cc1)n1cncc1CN1CCN(Cc2cnc(N(C)C)s2)C(=O)C1 [Compound 66, (R)-1-((2-(dimethylamino)thiazol-5-yl)methyl)-4-((1-(1-(4-fluorophenyl)ethyl)-1H-imidazol-5-yl)methyl) piperazin-2-one]"
